According to patent US9693556B2, “Herbicidal pyridazinone derivatives” (SYNGENTA LIMITED, priority 2011, dated 2017):

Key:
Type in all cases: in vivo
[1] = test system: Alopecurus myosuroides (ALOMY); test: Pre-emergence herbicidal glasshouse test on Alopecurus myosuroides; conditions: pre-emergence, 1000 g/h, evaluated after 13 days
Method in brief: (§1)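 Herbicidal damage was rated 13 days after treatment on a five-point scale, where 5 denotes 80-100% and 1 denotes 0-19% damage. Spraying at 1000 g/h followed sowing by one day (pre-emergence) or eight days (post-emergence).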

Setaria faberi (SETFA) [2] = test: Pre-emergence herbicidal glasshouse test on Setaria faberi; conditions: pre-emergence, 1000 g/h, evaluated after 13 days
Method in brief: as §1

[3] = test system: Echinochloa crus-galli (ECHCG); test: Pre-emergence herbicidal glasshouse test on Echinochloa crus-galli; conditions: pre-emergence, 1000 g/h, evaluated after 13 days
Method in brief: as §1

Solanum nigrum (SOLNI) [4] = test: Pre-emergence herbicidal glasshouse test on Solanum nigrum; conditions: pre-emergence, 1000 g/h, evaluated after 13 days
Method in brief: as §1

[5] = test system: Amaranthus retoflexus (AMARE); test: Pre-emergence herbicidal glasshouse test on Amaranthus retoflexus; conditions: pre-emergence, 1000 g/h, evaluated after 13 days
Method in brief: as §1

[6] = test system: Ipomoea hederacea (IPOHE); test: Pre-emergence herbicidal glasshouse test on Ipomoea hederacea; conditions: pre-emergence, 1000 g/h, evaluated after 13 days
Method in brief: as §1

[7] = test system: Alopecurus myosuroides (ALOMY); test: Post-emergence herbicidal glasshouse test on Alopecurus myosuroides; conditions: post-emergence, 1000 g/h, evaluated after 13 days
Method in brief: as §1

Setaria faberi (SETFA) [8] = test: Post-emergence herbicidal glasshouse test on Setaria faberi; conditions: post-emergence, 1000 g/h, evaluated after 13 days
Method in brief: as §1

[9] = test system: Echinochloa crus-galli (ECHCG); test: Post-emergence herbicidal glasshouse test on Echinochloa crus-galli; conditions: post-emergence, 1000 g/h, evaluated after 13 days
Method in brief: as §1

Solanum nigrum (SOLNI) [10] = test: Post-emergence herbicidal glasshouse test on Solanum nigrum; conditions: post-emergence, 1000 g/h, evaluated after 13 days
Method in brief: as §1

[11] = test system: Amaranthus retoflexus (AMARE); test: Post-emergence herbicidal glasshouse test on Amaranthus retoflexus; conditions: post-emergence, 1000 g/h, evaluated after 13 days
Method in brief: as §1

[12] = test system: Ipomoea hederacea (IPOHE); test: Post-emergence herbicidal glasshouse test on Ipomoea hederacea; conditions: post-emergence, 1000 g/h, evaluated after 13 days
Method in brief: as §1

SMILES | PRE Application ALOMY herbicidal damage (five point scale) [1] | PRE Application SETFA herbicidal damage (five point scale) (Setaria faberi (SETFA) [2]) | PRE Application ECHCG herbicidal damage (five point scale) [3] | PRE Application SOLNI herbicidal damage (five point scale) (Solanum nigrum (SOLNI) [4]) | PRE Application AMARE herbicidal damage (five point scale) [5] | PRE Application IPOHE herbicidal damage (five point scale) [6] | POST Application ALOMY herbicidal damage (five point scale) [7] | POST Application SETFA herbicidal damage (five point scale) (Setaria faberi (SETFA) [8]) | POST Application ECHCG herbicidal damage (five point scale) [9] | POST Application SOLNI herbicidal damage (five point scale) (Solanum nigrum (SOLNI) [10]) | POST Application AMARE herbicidal damage (five point scale) [11] | POST Application IPOHE herbicidal damage (five point scale) [12] | other results
CCCn1ncc(-c2ccc(S(C)(=O)=O)c(C3=NOCC3)c2Cl)c(O)c1=O [Compound 1.125, 5-[2-chloro-3-(4,5-dihydroisoxazol-3-yl)-4-methylsulfonyl-phenyl]-4-hydroxy-2-propyl-pyridazin-3-one] | 4 (4=60-79% damage) | 5 (5=80-100% damage) | 5 (5=80-100% damage) | 4 (4=60-79% damage) | 5 (5=80-100% damage) | 1 (1=0-19% damage) | 5 (5=80-100% damage) | 5 (5=80-100% damage) | 5 (5=80-100% damage) | 5 (5=80-100% damage) | 5 (5=80-100% damage) | 5 (5=80-100% damage) | –
CC(C)S(=O)(=O)c1ccccc1-c1cnn(C)c(=O)c1O [Compound 1.044] | 5 (5=80-100% damage) | 5 (5=80-100% damage) | 5 (5=80-100% damage) | 5 (5=80-100% damage) | 5 (5=80-100% damage) | 1 (1=0-19% damage) | 5 (5=80-100% damage) | 5 (5=80-100% damage) | 5 (5=80-100% damage) | 5 (5=80-100% damage) | 5 (5=80-100% damage) | 5 (5=80-100% damage) | –
Cn1ncc(-c2cc3cc(N4CCOCC4)cnc3nc2C(F)(F)F)c(O)c1=O [Compound 1.164] | – | – | – | – | – | – | – | – | – | – | – | – | herbicidal damage, PRE Application ALOMY ([1]; five point scale): 1 (1=0-19% damage); herbicidal damage, PRE Application SETFA (Setaria faberi (SETFA) [2]; five point scale): 2 (2=20-39% damage); herbicidal damage, PRE Application ECHCG ([3]; five point scale): 4 (4=60-79% damage); herbicidal damage, PRE Application SOLNI (Solanum nigrum (SOLNI) [4]; five point scale): 2 (2=20-39% damage); herbicidal damage, PRE Application AMARE ([5]; five point scale): 3 (3=40-59% damage); herbicidal damage, PRE Application IPOHE ([6]; five point scale): 4 (4=60-79% damage); herbicidal damage, POST Application ALOMY ([7]; five point scale): 1 (1=0-19% damage); herbicidal damage, POST Application SETFA (Setaria faberi (SETFA) [8]; five point scale): 5 (5=80-100% damage); herbicidal damage, POST Application ECHCG ([9]; five point scale): 5 (5=80-100% damage); herbicidal damage, POST Application SOLNI (Solanum nigrum (SOLNI) [10]; five point scale): 5 (5=80-100% damage); herbicidal damage, POST Application AMARE ([11]; five point scale): 5 (5=80-100% damage); herbicidal damage, POST Application IPOHE ([12]; five point scale): 5 (5=80-100% damage)
C#Cc1ccc(-c2cnn(C)c(=O)c2O)c(S(C)(=O)=O)c1 [Compound 2.028] | 5 (5=80-100% damage) | 4 (4=60-79% damage) | 5 (5=80-100% damage) | 5 (5=80-100% damage) | 5 (5=80-100% damage) | 4 (4=60-79% damage) | 5 (5=80-100% damage) | 5 (5=80-100% damage) | 5 (5=80-100% damage) | 5 (5=80-100% damage) | 5 (5=80-100% damage) | 5 (5=80-100% damage) | –
Cc1ccc(-c2c(C(F)(F)F)ccn(-c3cnn(C)c(=O)c3O)c2=O)cc1[N+](=O)[O-] [Compound 7.027] | 3 (3=40-59% damage) | 3 (3=40-59% damage) | 5 (5=80-100% damage) | 5 (5=80-100% damage) | 5 (5=80-100% damage) | 1 (1=0-19% damage) | 3 (3=40-59% damage) | 5 (5=80-100% damage) | 5 (5=80-100% damage) | 5 (5=80-100% damage) | 5 (5=80-100% damage) | 2 (2=20-39% damage) | –
Cn1ncc(-c2ccc(S(C)(=O)=O)c3c2COC3)c(O)c1=O [Compound 1.030] | 1 (1=0-19% damage) | 1 (1=0-19% damage) | 2 (2=20-39% damage) | 4 (4=60-79% damage) | 5 (5=80-100% damage) | 1 (1=0-19% damage) | 1 (1=0-19% damage) | 2 (2=20-39% damage) | 4 (4=60-79% damage) | 5 (5=80-100% damage) | 5 (5=80-100% damage) | 3 (3=40-59% damage) | –
CCn1ncc(-c2c(Cl)ccc(Cl)c2Cl)c(O)c1=O [Compound 1.010] | 1 (1=0-19% damage) | 1 (1=0-19% damage) | 1 (1=0-19% damage) | 1 (1=0-19% damage) | 1 (1=0-19% damage) | 1 (1=0-19% damage) | 1 (1=0-19% damage) | 1 (1=0-19% damage) | 1 (1=0-19% damage) | 4 (4=60-79% damage) | 2 (2=20-39% damage) | 4 (4=60-79% damage) | –
Cn1ncc(-c2cc(Cl)c(Cl)cc2Cl)c(O)c1=O [Compound 1.089] | 1 (1=0-19% damage) | 1 (1=0-19% damage) | 1 (1=0-19% damage) | 1 (1=0-19% damage) | 1 (1=0-19% damage) | 1 (1=0-19% damage) | 1 (1=0-19% damage) | 1 (1=0-19% damage) | 1 (1=0-19% damage) | 1 (1=0-19% damage) | 1 (1=0-19% damage) | 1 (1=0-19% damage) | –
